# Assay results as given in BindingDB's records for doi:10.1016/j.bmcl.2009.05.120 (Royal College of Surgeons In Ireland, 2009).
# Assay: Inhibition of PGHS-1 in human platelet rich plasma assessed as inhibition of arachidonic acid-induced platelet aggregation in human platelet rich plasma treated 5 min before arachidonic acid challenge by turbidimetry
smiles,measurement,value
COC(=O)CCCCc1cccc(C(=O)OC)c1OC(C)=O [methyl 2-acetoxy-3-(5-methoxy-5-oxopentyl)benzoate],IC50,720 µM
